Test results: ChEMBL document CHEMBL1201862, “PubChem BioAssay data set” (2004)
Calls of active or inactive are those of the source.

Experiments:
[1] = target: Cytochrome P450 2C9 (Homo sapiens, UniProt P11712)
[2] = target: T1, Endoribonuclease toxin MazF (Escherichia coli K-12, UniProt P0AE70); assay: MazF toxin RNase activators, dose response, biochemical, fluorescence, single-stranded RNA substrate, uHTS hits (AID 588481); format: functional
T1 sequence (P0AE70 whole entry): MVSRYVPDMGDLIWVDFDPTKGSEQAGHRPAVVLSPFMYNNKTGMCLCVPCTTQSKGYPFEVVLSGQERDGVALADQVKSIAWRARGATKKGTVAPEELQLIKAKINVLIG

[3] = target: T1, Endoribonuclease toxin MazF; assay: fluorescent RNA oligo signal without MazF, dose response, counter-screen for MazEF activator project, biochemical, fluorescence, single-stranded RNase substrate (AID 588502); format: functional
[4] = test system: P388/ADR; assay: cells; format: functional; settings: Mus musculus
[5] = test system: P388; assay: cells; format: functional; settings: Mus musculus
[6] = test system: SN12K1; assay: cells; format: functional; settings: Homo sapiens
[7] = test system: H9c2; assay: cells; format: functional, cell-based; settings: Rattus norvegicus, H9c2, Myocardium;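 also: confirmatory concentration-response retest of ultra-high-throughput screening hits for modulation of myocardial damage; cell death induced by hydrogen peroxide oxidative stress; compound pretreatment for 60 min then peroxide exposure for 2 h; potency is for protecting the cells against peroxide damage rather than for killing them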
[8] = target: Induced myeloid leukemia cell differentiation protein Mcl-1 (Homo sapiens, UniProt Q07820); format: functional
Induced myeloid leukemia cell differentiation protein Mcl-1, sequence (Q07820 whole entry): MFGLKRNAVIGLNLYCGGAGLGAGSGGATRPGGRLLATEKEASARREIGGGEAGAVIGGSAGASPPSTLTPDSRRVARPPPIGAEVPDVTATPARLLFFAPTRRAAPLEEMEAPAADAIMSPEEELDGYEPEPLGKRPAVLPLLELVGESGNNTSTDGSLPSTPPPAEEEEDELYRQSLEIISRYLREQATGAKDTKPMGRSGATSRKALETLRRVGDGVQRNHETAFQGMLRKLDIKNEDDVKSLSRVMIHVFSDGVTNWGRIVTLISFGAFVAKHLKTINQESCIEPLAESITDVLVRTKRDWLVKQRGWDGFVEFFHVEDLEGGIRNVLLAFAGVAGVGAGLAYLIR

[9] = target: T2, Leucine aminopeptidase (Plasmodium falciparum 3D7, UniProt Q8IL11); assay: P. falciparum M17LAP inhibitors, primary screen, biochemical, fluorogenic H-Leu-NHMec substrate, 1536-well (AID 1619); format: functional
T2 sequence (Q8IL11 whole entry): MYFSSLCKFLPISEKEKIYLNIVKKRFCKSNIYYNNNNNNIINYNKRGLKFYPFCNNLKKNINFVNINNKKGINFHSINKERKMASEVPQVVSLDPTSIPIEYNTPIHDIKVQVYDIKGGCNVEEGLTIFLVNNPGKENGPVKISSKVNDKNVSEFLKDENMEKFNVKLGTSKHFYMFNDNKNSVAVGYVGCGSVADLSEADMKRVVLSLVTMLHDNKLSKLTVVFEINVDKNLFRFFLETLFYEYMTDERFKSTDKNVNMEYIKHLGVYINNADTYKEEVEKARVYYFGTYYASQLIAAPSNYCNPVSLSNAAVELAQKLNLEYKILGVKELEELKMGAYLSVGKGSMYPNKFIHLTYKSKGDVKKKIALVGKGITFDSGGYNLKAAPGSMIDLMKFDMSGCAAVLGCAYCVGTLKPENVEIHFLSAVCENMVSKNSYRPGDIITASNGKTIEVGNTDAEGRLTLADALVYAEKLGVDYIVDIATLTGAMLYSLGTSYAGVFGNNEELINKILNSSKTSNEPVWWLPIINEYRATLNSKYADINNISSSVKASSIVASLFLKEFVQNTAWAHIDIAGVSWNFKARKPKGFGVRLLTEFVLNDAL

[10] = target: T3, Mannose-6-phosphate isomerase (Homo sapiens, UniProt P34949); assay: human PMI inhibitors, high substrate, primary screen, biochemical, fluorescence intensity, high mannose 6-phosphate (AID 1220)
T3 sequence (P34949 whole entry): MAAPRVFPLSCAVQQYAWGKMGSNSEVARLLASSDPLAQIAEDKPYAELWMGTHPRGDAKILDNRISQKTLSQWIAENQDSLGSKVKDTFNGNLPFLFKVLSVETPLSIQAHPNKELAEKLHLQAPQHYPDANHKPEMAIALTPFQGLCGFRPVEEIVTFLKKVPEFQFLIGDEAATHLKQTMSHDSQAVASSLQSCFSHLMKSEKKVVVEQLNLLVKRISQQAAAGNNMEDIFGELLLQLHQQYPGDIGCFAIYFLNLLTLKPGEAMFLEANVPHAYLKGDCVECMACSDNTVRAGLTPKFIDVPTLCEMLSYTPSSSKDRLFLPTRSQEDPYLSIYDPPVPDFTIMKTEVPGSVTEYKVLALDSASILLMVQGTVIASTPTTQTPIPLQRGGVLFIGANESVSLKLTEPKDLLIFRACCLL

[11] = cytotoxicity in OVCAR8 ovarian cancer cells, dose response, PAX8 project, cell-based, plate reader, dry powder samples (AID 743197); format: functional; settings: OVCAR-8
[12] = NIH:OVCAR-3 ovarian cancer cell cytotoxicity, dose response, PAX8 inhibitor project, plate reader, dry powder samples (AID 743044); format: functional, cell-based
[13] = target: Paired box protein Pax-8 (Homo sapiens, UniProt Q06710); assay: inhibitors of PAX8-driven TPO luciferase reporter, dose response, RMG-I cells, cherry-pick (AID 687027); format: functional, cell-based;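 also: luciferase reporter driven by Pax8 target thyroperoxidase promoter measured by SteadyGlo luminescence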
Paired box protein Pax-8, sequence (Q06710 whole entry): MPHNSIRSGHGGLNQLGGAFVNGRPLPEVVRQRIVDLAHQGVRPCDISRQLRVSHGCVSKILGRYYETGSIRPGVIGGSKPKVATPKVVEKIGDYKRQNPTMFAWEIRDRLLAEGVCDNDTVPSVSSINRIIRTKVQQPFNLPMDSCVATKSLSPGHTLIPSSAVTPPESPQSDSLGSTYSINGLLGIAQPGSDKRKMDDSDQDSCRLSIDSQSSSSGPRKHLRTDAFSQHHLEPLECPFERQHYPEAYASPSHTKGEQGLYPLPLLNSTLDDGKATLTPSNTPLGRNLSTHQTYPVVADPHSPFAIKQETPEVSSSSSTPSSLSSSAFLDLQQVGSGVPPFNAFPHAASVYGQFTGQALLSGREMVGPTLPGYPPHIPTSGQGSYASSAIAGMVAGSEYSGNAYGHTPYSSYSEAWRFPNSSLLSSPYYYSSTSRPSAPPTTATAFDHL

[14] = test system: Streptococcus sp. 'group A'; assay: growth inhibition of control SK(-) GAS strain, dose response, counter-screen for streptokinase expression inhibitor project, luminescence, kanamycin, BacTiterGlo, confirmation (AID 1900); format: functional, organism-based
[15] = Luminescence Cell-Based Dose Response HTS to Identify Activators of Luciferase Translation or Activity in H4 […] Cells. [Related pubchem assays: 1829 (Project Summary), 1814 (Primary HTS)]; format: functional
[16] = Luminescence Cell-Based Dose Confirmation HTS to Identify Activators of 5'UTR Stem-Loop Driven Alpha-Synuclein mRNA Translation in H4 Neuroglioblastoma Cells. [Related pubchem assays: 1829 (Project Summary), 1814 (Primary HTS)]; format: functional
[17] = test system: H4; assay: Luminescence Cell-Based Dose Response HTS to Identify Activators of 5'UTR Stem-Loop Driven Prion Protein mRNA Translation in H4 Neuroglioblastoma Cells. [Related pubchem assays: 1829 (Project Summary), 1814 (Primary HTS)]; format: functional; settings: Homo sapiens
[18] = test system: Streptococcus; assay: Group A Streptococcus viability loss, dose response, counter-screen for streptokinase expression inhibitor project, luminescence, BacTiterGlo (AID 1915); format: functional, organism-based;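 also: potency for reduction of bacterial viability or growth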
[19] = target: T4, Streptokinase A (Streptococcus pyogenes serotype M1, UniProt P10520); assay: S. pyogenes streptokinase expression inhibitors, potency, dose response, plasminogen activation absorbance, OD405 (AID 1914); format: functional, Streptococcus pyogenes M1 GAS;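 also: secreted streptokinase activity via plasminogen activation per viability signal from cell pellet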
T4 sequence (P10520 whole entry): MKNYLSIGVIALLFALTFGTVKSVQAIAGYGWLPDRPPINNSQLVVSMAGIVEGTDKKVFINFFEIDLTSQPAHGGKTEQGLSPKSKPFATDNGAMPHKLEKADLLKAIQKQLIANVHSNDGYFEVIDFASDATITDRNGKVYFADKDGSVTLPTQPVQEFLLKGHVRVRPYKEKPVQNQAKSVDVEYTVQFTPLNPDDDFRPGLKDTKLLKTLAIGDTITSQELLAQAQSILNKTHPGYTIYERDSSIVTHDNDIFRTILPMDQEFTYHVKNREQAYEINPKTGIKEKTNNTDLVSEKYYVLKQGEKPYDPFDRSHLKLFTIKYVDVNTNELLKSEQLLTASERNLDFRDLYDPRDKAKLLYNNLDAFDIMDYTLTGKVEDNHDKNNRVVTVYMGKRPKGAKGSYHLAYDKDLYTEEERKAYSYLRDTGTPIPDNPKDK

[20] = target: T5, Ubiquitin-conjugating enzyme E2 N (Homo sapiens, UniProt P61088); format: functional;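 also: Dose-response confirmation in a TR-FRET assay detecting UBC13-driven polyubiquitin chain formation, inhibition measured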
T5 sequence (P61088 whole entry): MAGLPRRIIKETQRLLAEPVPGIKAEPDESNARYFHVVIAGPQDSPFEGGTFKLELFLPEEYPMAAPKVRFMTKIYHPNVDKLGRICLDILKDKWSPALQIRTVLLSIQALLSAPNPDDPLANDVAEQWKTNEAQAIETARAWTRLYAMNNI

[21] = Luminescence Cell-Based Dose Retest to Confirm Inhibitors of Cancer Stem Cells. [Related pubchem assays (depositor defined):AID2717, AID2721]; format: functional; settings: Homo sapiens
[22] = target: T6, Fatty acid synthase (Homo sapiens, UniProt P49327); assay: FAS thioesterase domain inhibitors, dose response, biochemical, kinetic fluorescence intensity (AID 624326); format: functional;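 also: rate of fluorescence rise from hydrolysis of a fluorogenic O-methyl fluorescein ester substrate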
T6 sequence (P49327 whole entry, the tested form may be a part): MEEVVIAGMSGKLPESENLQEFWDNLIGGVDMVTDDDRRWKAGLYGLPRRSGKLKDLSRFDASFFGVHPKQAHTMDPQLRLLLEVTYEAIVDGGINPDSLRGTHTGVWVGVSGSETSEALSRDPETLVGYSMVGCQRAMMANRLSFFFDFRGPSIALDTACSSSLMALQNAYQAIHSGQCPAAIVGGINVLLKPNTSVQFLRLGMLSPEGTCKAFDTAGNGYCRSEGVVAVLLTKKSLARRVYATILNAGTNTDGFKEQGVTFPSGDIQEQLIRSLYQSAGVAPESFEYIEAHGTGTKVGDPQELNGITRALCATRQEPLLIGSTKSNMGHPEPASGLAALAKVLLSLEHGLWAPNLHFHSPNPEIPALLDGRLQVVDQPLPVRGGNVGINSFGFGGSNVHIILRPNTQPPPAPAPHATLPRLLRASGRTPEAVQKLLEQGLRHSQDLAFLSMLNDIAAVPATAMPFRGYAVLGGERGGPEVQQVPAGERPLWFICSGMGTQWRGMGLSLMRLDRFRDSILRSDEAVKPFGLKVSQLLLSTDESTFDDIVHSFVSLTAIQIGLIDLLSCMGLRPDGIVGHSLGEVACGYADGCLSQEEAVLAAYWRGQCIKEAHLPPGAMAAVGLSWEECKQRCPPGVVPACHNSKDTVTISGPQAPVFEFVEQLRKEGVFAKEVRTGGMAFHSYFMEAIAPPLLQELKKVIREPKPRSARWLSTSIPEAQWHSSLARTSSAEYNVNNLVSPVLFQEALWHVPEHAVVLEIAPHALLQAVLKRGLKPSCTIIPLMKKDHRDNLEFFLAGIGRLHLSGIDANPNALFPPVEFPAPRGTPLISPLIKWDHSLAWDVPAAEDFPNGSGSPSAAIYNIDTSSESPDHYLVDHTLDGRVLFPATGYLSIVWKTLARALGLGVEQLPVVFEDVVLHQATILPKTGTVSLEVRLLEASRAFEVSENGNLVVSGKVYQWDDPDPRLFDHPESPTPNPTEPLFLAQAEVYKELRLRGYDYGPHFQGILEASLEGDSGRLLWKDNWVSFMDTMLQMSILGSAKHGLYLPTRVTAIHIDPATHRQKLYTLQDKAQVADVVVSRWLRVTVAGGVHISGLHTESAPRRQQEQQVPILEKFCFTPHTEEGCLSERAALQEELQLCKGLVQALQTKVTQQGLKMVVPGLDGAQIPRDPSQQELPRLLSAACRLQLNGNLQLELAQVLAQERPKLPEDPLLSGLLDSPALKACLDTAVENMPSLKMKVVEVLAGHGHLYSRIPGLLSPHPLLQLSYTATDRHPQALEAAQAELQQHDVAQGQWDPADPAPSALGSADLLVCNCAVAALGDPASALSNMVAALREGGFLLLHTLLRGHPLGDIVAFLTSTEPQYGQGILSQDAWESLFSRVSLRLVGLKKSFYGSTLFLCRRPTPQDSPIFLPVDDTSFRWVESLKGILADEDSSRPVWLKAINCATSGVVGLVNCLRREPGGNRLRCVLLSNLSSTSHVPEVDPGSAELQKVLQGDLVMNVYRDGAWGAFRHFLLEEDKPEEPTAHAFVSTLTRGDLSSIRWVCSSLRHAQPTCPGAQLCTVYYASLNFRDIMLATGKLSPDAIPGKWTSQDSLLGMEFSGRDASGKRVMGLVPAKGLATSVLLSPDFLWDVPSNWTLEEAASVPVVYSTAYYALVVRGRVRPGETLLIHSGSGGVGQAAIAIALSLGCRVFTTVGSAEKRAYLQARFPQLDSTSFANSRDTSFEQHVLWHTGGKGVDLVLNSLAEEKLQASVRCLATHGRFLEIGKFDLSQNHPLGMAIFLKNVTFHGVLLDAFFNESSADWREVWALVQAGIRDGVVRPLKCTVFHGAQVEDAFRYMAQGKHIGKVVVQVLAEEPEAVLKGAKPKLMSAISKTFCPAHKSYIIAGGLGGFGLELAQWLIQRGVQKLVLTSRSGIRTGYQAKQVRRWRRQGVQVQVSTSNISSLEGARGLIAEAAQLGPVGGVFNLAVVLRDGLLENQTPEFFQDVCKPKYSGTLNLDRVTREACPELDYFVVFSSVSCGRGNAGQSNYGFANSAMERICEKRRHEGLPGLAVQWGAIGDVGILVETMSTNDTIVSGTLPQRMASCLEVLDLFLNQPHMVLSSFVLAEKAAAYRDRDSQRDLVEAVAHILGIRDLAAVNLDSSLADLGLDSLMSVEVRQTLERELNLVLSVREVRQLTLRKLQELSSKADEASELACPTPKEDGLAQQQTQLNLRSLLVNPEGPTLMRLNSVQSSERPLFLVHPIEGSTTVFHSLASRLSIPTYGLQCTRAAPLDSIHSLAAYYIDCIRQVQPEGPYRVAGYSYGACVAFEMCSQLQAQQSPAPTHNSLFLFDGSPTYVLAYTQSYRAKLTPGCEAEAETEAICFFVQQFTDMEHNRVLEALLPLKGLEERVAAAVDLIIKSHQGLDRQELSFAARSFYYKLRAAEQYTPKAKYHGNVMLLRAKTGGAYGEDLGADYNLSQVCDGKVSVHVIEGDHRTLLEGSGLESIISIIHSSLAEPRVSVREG

[23] = target: T6, Fatty acid synthase; assay: FAS thioesterase domain inhibitors, dose response, biochemical, endpoint fluorescence intensity, uHTS hits (AID 624327); format: functional;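 also: fluorescence from hydrolysis of an O-methyl fluorescein acyl ester substrate by the enzyme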

Cytochrome P450 2C9, sequence (P11712 whole entry): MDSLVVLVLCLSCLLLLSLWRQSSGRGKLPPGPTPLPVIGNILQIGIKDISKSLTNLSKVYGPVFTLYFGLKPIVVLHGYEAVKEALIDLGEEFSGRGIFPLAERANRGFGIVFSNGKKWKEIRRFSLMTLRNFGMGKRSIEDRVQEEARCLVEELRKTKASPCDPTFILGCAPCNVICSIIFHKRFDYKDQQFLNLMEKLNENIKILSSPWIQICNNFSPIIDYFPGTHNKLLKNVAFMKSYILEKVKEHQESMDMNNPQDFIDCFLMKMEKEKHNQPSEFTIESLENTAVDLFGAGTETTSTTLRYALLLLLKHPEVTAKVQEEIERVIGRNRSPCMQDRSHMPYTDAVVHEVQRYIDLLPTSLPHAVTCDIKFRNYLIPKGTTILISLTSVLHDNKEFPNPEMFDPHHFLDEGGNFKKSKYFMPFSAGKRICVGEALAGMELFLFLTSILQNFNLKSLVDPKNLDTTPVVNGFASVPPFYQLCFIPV

Compound: Cc1ccc(OCC(=O)Nc2ccc(Cl)cc2)c(-n2nc3ccccc3n2)c1
- AC50 [1]: 2 µM (inconclusive)
- EC50 [2]: > 99 µM (inactive)
- EC50 [3]: > 99 µM (inactive)

Compound: N#C/C(=C\c1ccncc1)c1csc2ccccc12
- GI50 [4]: 6.49 µM (inactive)
- GI50 [5]: 19.1 µM (inactive)
- GI50 [6]: 29.2 µM (inactive)

Compound: COc1cc(/C=C/C(=O)OCC(=O)N2c3ccccc3NC(=O)C2(C)C)cc(OC)c1OC
- IC50 [7]: > 79 µM (inactive)

Compound: Oc1ccc(N2CCN(c3ncnc4sc5c(c34)CCC5)CC2)cc1
- IC50 [8]: 4.31 µM (active)

Compound: CCCCCn1cc2c3c(cccc31)C1C=C(C)CN(C)[C@@H]1C2.Cc1ccc(C(=O)OC(C(=O)O)C(OC(=O)c2ccc(C)cc2)C(=O)O)cc1 (stereo not drawn)
- GI50 [4]: 3.18 µM (inactive)
- GI50 [5]: 2.63 µM (inactive)
- GI50 [6]: 3.56 µM (inactive)

Compound: CC(C)Oc1ccc(C(CC(=O)O)NC(=O)CSc2nnc[nH]2)cc1 (stereo not drawn)
- IC50 [9]: 47.4 µM (active)

Compound: O=C(CCl)NNC1=Nc2ccc(Cl)cc2SC1
- GI50 [4]: 0.627 µM (active)
- GI50 [5]: 0.236 µM (active)
- GI50 [6]: 3.45 µM (inactive)

Compound: C[C@H]1Cn2cnc(C(=O)N[C@@H](Cc3c[nH]c4ccccc34)C(=O)OC(C)(C)C)c2C(=O)N1
- IC50 [7]: 18 µM (active)

Compound: CNc1c([N+](=O)[O-])ccc2c1=NC1(CCCCC1)[N+]=2[O-]
- IC50 [10]: > 50 µM (not active)

Compound: COc1cc(OC)cc(C(=O)Nc2ccc(C(=O)Nc3ccccc3OC)cc2)c1
- IC50 [7]: > 79 µM (inactive)

Compound: C[C@@H]1CCCCO[C@H](CN(C)C(=O)Nc2ccc(C(F)(F)F)cc2)[C@@H](C)CN([C@@H](C)CO)C(=O)c2cc(NC(=O)Nc3ccc(C(F)(F)F)cc3)ccc2O1
- AC50 [11]: 32.8 µM (active)
- AC50 [12]: 19.6 µM (active)
- AC50 [13]: 2.32 µM (active)

Compound: O=C(/C=C\c1cn(-c2ccccc2)nc1-c1ccc2c(c1)OCCO2)N1CCOCC1
- IC50 [7]: > 79 µM (inactive)

Compound: COc1ccc(CNC(=O)c2cc3c(=O)n4ccccc4nc3n(Cc3cccnc3)c2=N)cc1
- EC50 [2]: 55.4 µM (inactive)
- EC50 [3]: 47.3 µM (inactive)

Compound: C/C=C1/C(=O)O[C@]23C=C[C@@H]4C(C(=O)OC)=CO[C@H](O[C@@H]12)[C@@H]43 [PLUMERICIN]
- GI50 [4]: 0.0853 µM (active)
- GI50 [5]: 0.105 µM (active)
- GI50 [6]: 1.09 µM (active)

Compound: CCCOc1ccc(C(=O)Nc2ccc(N(C)C)cc2)cc1
- IC50 [8]: 3.27 µM (not active)

Compound: O=C1/C(=C/Nc2ccc(O)cc2)c2ccccc2C(=O)N1Cc1ccccc1
- EC50 [14]: 6.51 µM (active)
- EC50 [15]: 39.6 µM (active)
- EC50 [16]: 17.7 µM (active)
- EC50 [17]: 33 µM (active)
- EC50 [2]: > 99 µM (inactive)
- EC50 [18]: 14.6 µM (active)
- EC50 [19]: 18.6 µM (active)
- EC50 [3]: 44.3 µM (inactive)

Compound: COc1cccc(-c2sc3ccccc3c2-c2ccc(OCCN3CCCCC3)cc2)c1
- IC50 [20]: > 20 µM (inactive)
- AC50 [21]: 1.43 µM (active)

Compound: COc1ccc(NC(=O)CSc2ncnc3c2sc2ccccc23)c(OC)c1
- IC50 [8]: 10.3 µM (not active)

Compound: Cc1ccc2[nH]c3c(C)c4ccncc4c(C)c3c2c1
- GI50 [4]: 0.933 µM (active)
- GI50 [5]: 0.394 µM (active)
- GI50 [6]: 0.927 µM (active)

Compound: O=C(COC(=O)c1cc(O)nc(O)n1)Nc1cccc(Cl)c1
- IC50 [20]: > 20 µM (inactive)

Compound: O=C(Nc1cccc(/C=C/c2ccccn2)c1)c1ccc(-n2cncn2)cc1
- IC50 [7]: 38.2 µM (inactive)

Compound: COCCCn1c(=O)/c(=C/c2ccccc2OC(F)F)s/c1=C(\C#N)C(=O)NCCOC
- EC50 [2]: > 99 µM (inactive)
- EC50 [3]: > 99 µM (inactive)

Compound: O=C(O)Cn1nnnc1SCC(=O)Nc1ccc(OC(F)(F)F)cc1
- IC50 [9]: 5.22 µM (active)

Compound: CCN(CCNc1ccc([N+](=O)[O-])c2cccnc12)S(=O)(=O)c1ccccc1
- EC50 [2]: > 99 µM (inactive)
- EC50 [3]: > 99 µM (inactive)

Compound: CCC(C)Nc1ncnc2c1cnn2Cc1ccc(Cl)cc1 (stereo not drawn)
- IC50 [7]: > 79 µM (inactive)

Compound: CCOc1ccc(N2C(=O)CC(SCCN)C2=O)cc1 (stereo not drawn)
- IC50 [9]: 23.6 µM (active)

Compound: CSc1nc2c(ncn2C2OCC(O)C(O)C2O)c(=O)[nH]1 (stereo not drawn)
- GI50 [4]: > 100 µM (inactive)
- GI50 [5]: > 100 µM (inactive)
- GI50 [6]: > 100 µM (inactive)

Compound: C[C@@H]1CN([C@H](C)CO)C(=O)c2cc(NS(=O)(=O)c3ccc(F)cc3)ccc2O[C@@H](C)CCCCO[C@@H]1CN(C)CC1CCCCC1
- AC50 [11]: > 70 µM (inactive)
- AC50 [12]: 44 µM (active)
- AC50 [13]: 13 µM (active)

Compound: COC1=C2C[C@@H](C)C[C@@H](OC)[C@@H](O)[C@H](C)/C=C(\C)[C@@H](OC(N)=O)[C@H](OC)/C=C\C=C(/C)C(=O)NC(=CC1=O)C2=O
- GI50 [4]: 0.212 µM (active)
- GI50 [5]: 0.015 µM (active)
- GI50 [6]: 0.11 µM (active)

Compound: O=[N+]([O-])c1ccc(Sc2nnc(-c3ccccc3)[nH]2)nc1
- IC50 [9]: 31.5 µM (active)
- IC50 [22]: 10.6 µM (active)
- IC50 [23]: 10.9 µM (active)
